Source: ChEMBL document CHEMBL1201862, “PubChem BioAssay data set” (2004)
Each block holds one molecule with its values, some of them ahead of it. Calls of active or inactive are those of the source.

How the values were obtained:
[1] = target: T1, High affinity choline transporter 1 (Homo sapiens, UniProt Q9GZV3); assay: human choline transporter blockers, potency – cell-based, 5-point CRC, membrane potential dye, dose response (AID 504840); type: functional
T1 sequence (Q9GZV3 whole entry): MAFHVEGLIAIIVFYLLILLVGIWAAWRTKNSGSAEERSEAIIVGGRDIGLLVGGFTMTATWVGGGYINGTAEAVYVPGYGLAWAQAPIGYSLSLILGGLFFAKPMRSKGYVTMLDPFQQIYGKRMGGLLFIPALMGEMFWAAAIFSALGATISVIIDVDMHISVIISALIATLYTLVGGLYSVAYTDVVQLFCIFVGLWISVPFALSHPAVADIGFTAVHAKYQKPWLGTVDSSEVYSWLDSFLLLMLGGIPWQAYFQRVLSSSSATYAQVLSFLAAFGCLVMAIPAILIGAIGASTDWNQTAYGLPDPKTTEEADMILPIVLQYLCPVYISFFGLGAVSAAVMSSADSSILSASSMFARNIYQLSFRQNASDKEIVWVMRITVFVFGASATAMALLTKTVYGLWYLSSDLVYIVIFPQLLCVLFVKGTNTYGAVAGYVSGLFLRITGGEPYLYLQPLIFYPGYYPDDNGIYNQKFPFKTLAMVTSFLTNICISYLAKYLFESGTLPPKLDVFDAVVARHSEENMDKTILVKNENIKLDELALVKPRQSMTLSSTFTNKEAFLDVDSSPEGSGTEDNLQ

H9c2 = assay: cells; type: functional, cell-based; settings: Rattus norvegicus, H9c2, Myocardium;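 also: confirmatory concentration-response retest of ultra-high-throughput screening hits for modulation of myocardial damage; cell death induced by hydrogen peroxide oxidative stress; compound pretreatment for 60 min then peroxide exposure for 2 h; potency is for protecting the cells against peroxide damage rather than for killing them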
HEK293 [2] = assay: inhibition of NOD1-driven NF-kB reporter – cell-based, luminescence, uHTS, primary screen (AID 1578); type: functional; settings: Homo sapiens
HEK293 [3] = assay: cells; type: functional, cell-based; settings: Homo sapiens
HEK293 [4] = assay: cells; type: functional, cell-based; settings: Homo sapiens; remark: listed apart in the source
Ion channel NompC = Ion channel NompC (Danio rerio, UniProt Q7T1G6); assay: Dose response cell-based high-throughput screening assay for agonists of the transient receptor potential channel N1 (TRPN1). [Related pubchem assays (depositor defined):AID1424, AID1448]; type: functional
[5] = target: Nucleotide-binding oligomerization domain-containing protein 2 (Homo sapiens, UniProt Q9HC29); assay: inhibition of NOD2-driven NF-kB reporter – cell-based, luminescence, uHTS, HEK293 (AID 1566); type: functional
HEK293 [6] = assay: NOD2 signaling inhibitors in MDP-stimulated cells, cell-based, uHTS, luminescence (AID 2001); type: functional; settings: Homo sapiens
HEK293 [7] = assay: cells; type: functional, cell-based; settings: Homo sapiens; remark: listed apart in the source
Mucolipin-3 = target: T2, Mucolipin-3 (Homo sapiens, UniProt Q8TDD5); assay: Fluorescence counterscreen assay for […] agonists: dose response cell-based high-throughput screening assay to identify agonists of the transient receptor potential channel ML3 (TRPML3). [Related pubchem assays: 1424, 1448 ]; type: functional
T2 sequence (Q8TDD5 whole entry): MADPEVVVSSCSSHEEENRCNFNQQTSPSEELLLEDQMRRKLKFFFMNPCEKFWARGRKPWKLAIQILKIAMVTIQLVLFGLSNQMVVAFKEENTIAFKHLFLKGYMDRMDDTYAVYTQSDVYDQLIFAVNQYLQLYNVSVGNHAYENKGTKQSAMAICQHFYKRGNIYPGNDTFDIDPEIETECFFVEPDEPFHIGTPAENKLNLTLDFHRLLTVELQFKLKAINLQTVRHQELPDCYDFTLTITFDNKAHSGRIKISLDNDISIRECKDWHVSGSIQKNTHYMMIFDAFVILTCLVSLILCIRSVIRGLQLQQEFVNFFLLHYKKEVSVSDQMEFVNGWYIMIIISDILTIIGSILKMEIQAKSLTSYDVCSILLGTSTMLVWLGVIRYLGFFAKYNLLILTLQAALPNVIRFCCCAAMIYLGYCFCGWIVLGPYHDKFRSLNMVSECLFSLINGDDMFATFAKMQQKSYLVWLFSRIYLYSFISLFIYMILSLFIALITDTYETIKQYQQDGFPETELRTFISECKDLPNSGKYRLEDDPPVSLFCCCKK

[8] = target: T3, Corticotropin-releasing factor receptor 2/Corticotropin-releasing factor-binding protein (Homo sapiens, UniProt P24387+Q13324); assay: Dose Response confirmation of uHTS hits for small molecule antagonists of the CRF-binding protein and CRF-R2 receptor complex.; type: functional; settings: read-out: IC50_Mean
T3 sequence (Q13324 whole entry): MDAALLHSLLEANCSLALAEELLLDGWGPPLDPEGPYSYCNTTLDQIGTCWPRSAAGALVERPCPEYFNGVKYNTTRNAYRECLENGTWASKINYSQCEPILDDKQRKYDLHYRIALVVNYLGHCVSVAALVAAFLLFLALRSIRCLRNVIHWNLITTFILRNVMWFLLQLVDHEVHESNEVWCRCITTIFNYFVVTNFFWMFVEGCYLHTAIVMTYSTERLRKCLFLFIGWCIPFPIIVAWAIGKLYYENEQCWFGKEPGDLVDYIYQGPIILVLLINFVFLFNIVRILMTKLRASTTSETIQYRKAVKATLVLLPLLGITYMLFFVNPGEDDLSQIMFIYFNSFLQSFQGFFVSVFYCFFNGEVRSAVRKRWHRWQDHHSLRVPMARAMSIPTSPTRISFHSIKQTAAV
T3 sequence (P24387 whole entry): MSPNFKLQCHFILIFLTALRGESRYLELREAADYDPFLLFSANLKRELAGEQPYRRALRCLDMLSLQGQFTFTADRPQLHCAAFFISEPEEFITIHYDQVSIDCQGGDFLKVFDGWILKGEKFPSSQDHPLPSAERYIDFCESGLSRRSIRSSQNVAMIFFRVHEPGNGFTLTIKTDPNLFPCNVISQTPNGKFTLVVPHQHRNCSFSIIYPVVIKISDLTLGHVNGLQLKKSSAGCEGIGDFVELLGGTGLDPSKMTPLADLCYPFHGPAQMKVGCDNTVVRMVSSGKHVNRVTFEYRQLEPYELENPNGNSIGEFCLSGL

[9] = target: T3, Corticotropin-releasing factor receptor 2/Corticotropin-releasing factor-binding protein; assay: activators of CRF receptor 2 with binding protein – uHTS hits, confirmation (AID 602473); type: functional; settings: read-out: EC50_Mean
[10] = blockers of CRF-binding protein–CRF-R2 complex – cell-based, uHTS hits, 384-well, dose response (AID 651639); type: functional, Homo sapiens; settings: read-out: IC50_Mean
Cytochrome P450 1A2 = target: T4, Cytochrome P450 1A2 (Homo sapiens, UniProt P05177);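 also: PubChem cytochrome P450 panel assay, CYP1A2 panel member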
T4 sequence (P05177 whole entry): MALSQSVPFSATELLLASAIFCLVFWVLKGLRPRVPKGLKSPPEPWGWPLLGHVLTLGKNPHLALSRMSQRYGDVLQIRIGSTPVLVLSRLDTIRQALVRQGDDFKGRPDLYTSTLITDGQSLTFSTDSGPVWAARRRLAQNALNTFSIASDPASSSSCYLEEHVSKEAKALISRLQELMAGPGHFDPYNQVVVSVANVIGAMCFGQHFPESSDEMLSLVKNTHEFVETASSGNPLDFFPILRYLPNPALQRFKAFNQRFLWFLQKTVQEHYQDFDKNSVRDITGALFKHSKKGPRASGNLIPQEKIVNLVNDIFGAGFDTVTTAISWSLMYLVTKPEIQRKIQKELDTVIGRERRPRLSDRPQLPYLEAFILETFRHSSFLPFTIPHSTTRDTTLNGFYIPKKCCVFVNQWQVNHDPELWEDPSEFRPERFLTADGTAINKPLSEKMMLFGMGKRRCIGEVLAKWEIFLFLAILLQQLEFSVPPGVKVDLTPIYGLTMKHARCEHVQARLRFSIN

Cytochrome P450 2D6 = Cytochrome P450 2D6 (Homo sapiens, UniProt P10635);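 also: CYP2D6 member of a cytochrome P450 panel assay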
Bcl-2-related protein A1 = target: T5, Bcl-2-related protein A1 (Mus musculus, UniProt Q07440); type: functional;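 also: confirmatory dose–response counterscreen on Bfl-1, used to check hits from a UBC13 polyubiquitin inhibitor campaign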
T5 sequence (Q07440 whole entry): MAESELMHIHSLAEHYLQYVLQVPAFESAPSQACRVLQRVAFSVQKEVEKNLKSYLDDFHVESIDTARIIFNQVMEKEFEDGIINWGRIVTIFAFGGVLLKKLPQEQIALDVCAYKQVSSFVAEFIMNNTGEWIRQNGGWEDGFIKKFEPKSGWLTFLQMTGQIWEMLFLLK

[11] = target: T6, Ubiquitin-conjugating enzyme E2 N (Homo sapiens, UniProt P61088); type: functional
T6 sequence (P61088 whole entry): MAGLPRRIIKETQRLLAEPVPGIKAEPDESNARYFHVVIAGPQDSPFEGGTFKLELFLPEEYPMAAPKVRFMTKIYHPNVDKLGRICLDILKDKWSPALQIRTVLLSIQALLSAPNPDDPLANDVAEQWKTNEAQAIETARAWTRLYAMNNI

[12] = target: T6, Ubiquitin-conjugating enzyme E2 N; type: functional; remark: listed apart in the source
[13] = target: T7, Histone-lysine N-methyltransferase NSD2 (Homo sapiens, UniProt O96028); type: biochemical
T7 sequence (O96028 whole entry): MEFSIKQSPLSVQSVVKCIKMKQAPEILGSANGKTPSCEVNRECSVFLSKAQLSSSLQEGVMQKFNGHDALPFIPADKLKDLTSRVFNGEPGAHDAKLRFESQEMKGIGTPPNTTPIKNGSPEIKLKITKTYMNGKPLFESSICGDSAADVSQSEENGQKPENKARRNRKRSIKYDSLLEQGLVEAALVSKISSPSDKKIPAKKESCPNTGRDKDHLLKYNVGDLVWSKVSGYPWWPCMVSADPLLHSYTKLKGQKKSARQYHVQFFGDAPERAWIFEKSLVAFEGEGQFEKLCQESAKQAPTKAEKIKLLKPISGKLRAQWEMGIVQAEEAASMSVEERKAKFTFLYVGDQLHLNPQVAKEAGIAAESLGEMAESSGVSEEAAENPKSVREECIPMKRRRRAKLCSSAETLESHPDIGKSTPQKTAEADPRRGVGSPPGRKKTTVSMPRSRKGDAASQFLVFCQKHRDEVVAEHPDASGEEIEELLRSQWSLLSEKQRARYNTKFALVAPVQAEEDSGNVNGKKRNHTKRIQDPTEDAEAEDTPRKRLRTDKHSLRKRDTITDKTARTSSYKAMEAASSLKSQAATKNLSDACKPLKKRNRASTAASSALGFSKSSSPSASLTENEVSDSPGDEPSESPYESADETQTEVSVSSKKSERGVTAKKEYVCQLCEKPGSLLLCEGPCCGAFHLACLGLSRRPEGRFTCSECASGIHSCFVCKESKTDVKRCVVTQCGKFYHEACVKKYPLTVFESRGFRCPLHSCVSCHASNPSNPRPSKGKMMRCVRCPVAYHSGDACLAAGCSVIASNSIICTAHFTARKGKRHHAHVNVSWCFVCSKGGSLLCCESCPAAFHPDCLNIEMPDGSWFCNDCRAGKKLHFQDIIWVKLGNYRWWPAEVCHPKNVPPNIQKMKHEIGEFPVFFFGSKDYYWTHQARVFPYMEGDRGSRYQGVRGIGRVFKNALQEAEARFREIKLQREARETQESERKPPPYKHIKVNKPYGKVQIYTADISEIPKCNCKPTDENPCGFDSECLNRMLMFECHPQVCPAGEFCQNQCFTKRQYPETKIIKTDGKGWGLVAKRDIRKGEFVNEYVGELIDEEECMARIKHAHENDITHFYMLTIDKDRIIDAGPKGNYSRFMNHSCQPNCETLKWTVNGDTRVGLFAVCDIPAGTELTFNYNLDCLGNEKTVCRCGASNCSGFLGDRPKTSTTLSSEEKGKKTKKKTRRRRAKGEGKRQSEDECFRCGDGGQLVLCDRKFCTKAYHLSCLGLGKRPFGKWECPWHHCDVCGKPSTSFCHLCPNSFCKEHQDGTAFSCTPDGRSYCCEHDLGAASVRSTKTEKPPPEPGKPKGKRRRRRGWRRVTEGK

Ion channel NompC, sequence (Q7T1G6 whole entry, the tested form may be a part): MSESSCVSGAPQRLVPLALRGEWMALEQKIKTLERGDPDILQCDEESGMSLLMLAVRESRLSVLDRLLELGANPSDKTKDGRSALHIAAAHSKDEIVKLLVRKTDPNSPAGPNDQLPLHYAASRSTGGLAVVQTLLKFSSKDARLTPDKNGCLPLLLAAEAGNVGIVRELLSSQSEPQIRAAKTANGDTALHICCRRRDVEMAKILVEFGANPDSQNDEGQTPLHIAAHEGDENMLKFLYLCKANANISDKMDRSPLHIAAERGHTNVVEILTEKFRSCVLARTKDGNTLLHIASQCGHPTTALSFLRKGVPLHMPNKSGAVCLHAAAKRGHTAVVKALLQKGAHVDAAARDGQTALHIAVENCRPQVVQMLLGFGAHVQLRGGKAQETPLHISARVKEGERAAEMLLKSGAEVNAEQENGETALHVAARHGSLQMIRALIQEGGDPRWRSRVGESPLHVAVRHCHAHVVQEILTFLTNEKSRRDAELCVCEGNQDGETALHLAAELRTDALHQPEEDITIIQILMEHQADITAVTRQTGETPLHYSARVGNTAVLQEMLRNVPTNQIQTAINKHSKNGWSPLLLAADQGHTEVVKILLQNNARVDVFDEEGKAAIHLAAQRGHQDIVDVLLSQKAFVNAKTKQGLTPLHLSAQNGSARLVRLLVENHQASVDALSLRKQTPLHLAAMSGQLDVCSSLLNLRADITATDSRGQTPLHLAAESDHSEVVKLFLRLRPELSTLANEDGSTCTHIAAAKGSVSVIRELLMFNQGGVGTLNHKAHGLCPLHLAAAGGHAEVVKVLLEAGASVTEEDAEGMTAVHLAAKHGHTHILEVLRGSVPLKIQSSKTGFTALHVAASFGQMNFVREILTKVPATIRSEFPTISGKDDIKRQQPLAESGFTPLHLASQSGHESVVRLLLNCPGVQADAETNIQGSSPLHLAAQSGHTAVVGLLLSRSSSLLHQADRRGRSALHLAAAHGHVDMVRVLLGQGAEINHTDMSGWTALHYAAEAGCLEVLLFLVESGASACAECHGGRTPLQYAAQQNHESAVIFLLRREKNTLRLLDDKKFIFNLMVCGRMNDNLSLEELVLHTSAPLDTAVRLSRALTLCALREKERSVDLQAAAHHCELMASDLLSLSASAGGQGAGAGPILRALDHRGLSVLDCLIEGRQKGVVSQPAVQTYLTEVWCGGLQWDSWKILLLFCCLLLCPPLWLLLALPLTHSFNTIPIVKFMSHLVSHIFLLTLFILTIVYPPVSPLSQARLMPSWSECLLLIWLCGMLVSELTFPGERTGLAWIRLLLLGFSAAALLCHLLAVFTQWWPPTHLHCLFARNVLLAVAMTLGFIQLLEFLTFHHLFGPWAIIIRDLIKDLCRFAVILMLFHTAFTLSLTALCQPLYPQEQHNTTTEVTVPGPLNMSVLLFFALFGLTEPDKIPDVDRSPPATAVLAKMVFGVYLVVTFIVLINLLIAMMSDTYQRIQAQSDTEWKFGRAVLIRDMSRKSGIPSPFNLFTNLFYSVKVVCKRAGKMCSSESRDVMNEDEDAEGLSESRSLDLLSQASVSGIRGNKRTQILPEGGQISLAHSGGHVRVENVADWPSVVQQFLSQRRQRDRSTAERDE
Nucleotide-binding oligomerization domain-containing protein 2, sequence (Q9HC29 whole entry, the tested form may be a part): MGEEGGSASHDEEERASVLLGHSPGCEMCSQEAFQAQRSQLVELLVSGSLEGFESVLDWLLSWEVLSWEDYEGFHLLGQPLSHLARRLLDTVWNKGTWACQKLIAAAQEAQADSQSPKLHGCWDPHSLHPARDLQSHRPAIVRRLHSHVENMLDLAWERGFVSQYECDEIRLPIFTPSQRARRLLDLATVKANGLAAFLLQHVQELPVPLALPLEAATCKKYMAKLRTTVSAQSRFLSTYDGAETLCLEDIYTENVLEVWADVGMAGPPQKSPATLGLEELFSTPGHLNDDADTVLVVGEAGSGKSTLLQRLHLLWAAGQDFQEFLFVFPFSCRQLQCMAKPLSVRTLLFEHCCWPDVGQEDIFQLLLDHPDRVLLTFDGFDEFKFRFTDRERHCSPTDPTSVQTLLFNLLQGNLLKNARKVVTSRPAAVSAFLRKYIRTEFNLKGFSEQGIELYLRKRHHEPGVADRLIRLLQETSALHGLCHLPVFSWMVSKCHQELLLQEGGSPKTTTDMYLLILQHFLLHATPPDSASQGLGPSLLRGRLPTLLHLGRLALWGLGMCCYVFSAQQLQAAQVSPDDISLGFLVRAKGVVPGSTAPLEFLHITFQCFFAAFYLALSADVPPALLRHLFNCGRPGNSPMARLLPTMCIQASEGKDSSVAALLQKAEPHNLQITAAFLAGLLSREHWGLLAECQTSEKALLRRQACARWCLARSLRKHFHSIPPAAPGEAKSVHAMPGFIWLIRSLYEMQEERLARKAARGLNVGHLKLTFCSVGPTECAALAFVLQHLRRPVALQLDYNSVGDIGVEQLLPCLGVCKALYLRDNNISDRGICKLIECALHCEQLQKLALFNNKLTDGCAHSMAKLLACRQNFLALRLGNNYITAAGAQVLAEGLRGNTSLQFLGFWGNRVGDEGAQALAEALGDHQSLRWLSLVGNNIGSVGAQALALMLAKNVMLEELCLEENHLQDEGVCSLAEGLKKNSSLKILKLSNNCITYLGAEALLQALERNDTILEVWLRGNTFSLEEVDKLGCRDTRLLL
Cytochrome P450 2D6, sequence (P10635 whole entry): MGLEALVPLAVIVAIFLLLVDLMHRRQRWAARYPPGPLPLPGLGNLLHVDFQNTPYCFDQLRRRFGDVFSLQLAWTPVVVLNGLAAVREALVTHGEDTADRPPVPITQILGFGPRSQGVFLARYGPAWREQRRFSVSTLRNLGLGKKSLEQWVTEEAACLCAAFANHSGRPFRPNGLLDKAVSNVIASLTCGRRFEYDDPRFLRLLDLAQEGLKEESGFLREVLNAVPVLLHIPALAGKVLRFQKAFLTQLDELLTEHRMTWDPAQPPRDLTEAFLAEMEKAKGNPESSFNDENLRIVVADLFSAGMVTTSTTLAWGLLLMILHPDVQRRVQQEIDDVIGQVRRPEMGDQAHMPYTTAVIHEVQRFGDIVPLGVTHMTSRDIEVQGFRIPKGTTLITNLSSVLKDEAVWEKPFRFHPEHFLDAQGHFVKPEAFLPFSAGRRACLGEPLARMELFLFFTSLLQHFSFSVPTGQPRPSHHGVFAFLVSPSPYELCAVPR

SMILES: O=C(NC1CCCCC1)C(c1ccc2ncccc2c1)N(Cc1ccccc1)C(=O)c1ccc2c(c1)OCCO2 (centres undefined)
IC50 [1]: 10 µM (active) | IC50 (H9c2): > 79 µM (inactive)

SMILES: COC(=O)c1ccc(NC(=O)c2ccccc2NS(=O)(=O)c2ccccc2)cc1
EC50 (HEK293 [2]): 2.34 µM (active) | IC50 (HEK293 [3]): 12.9 µM (active) | IC50 (HEK293 [4]): > 20 µM (inactive) | EC50 (Ion channel NompC): > 29.9 µM (inactive) | EC50 [5]: 6.09 µM (active) | IC50 (HEK293 [6]): 7.55 µM (active) | IC50 (HEK293 [7]): > 20 µM (inactive) | EC50 (Mucolipin-3): > 29.9 µM (not active) | IC50 [8]: 0.506 µM (active) | EC50 [9]: > 53 µM (inactive) | IC50 [10]: > 20 µM (inactive)

SMILES: CC1=NN(c2ccccc2)C(=O)[C@@H]1/N=N\c1ccc([As](=O)(O)O)c(O)c1
AC50 (Cytochrome P450 1A2): 5.01 µM (inconclusive) | AC50 (Cytochrome P450 2D6): inconclusive

IC50 (Bcl-2-related protein A1): > 20 µM (inactive) | IC50 [11]: 8.66 µM (active) | IC50 [12]: 9.34 µM (active) | AC50 [13]: 14.7 µM (active)
SMILES: CNCc1cc(Br)c(OCC(=O)Nc2ccccc2OC)c(OC)c1
